From patent publication US8987228B2, “Pharmaceutical composition including an A3 adenosine receptor agonist 1-deooxy-1-[N6-(3-idobenzyl)-adenin-9-yl]-N-methyl-β-D-ribofuronamide(IB-MECA/CF-101) for treatment of psoriasis” (Can-Fite Biopharma Ltd., priority 2009, dated 2015)
“Also recorded” adds a separate entry of the source.

Test system: moderate-to-severe chronic plaque psoriasis
Experiment: Phase 2, multi-center, randomized, double-blind, placebo-controlled clinical study in psoriasis patients (PASI assessment)
Type: in vivo, human
Details: 12 weeks
Description: A Phase 2, multi-center, randomized, double-blind, placebo-controlled clinical study was conducted in adult males and females, with ages of 18 to 70 years, with a diagnosis of moderate-to-severe chronic plaque psoriasis.
Eligible patients were randomly assigned to receive either placebo or a clinical grade […][N^6-(3-iodobenzyl)-adenin-9-yl]-N-methyl-β-D-ribofuronamide, IB-MECA (code-named by the study sponsor, Can-Fite Biopharma, the Assignee of this application, as “CF101”) at doses of 1 mg, 2 mg and 4 mg, taken orally twice daily (namely, total daily doses of 2 mg, 4 mg and 8 mg, respectively). IB-MECA was formulated in a tablet formulation as detailed in Table 1 below. Patients were instructed to take the formulation on an empty stomach. The study duration was 12 weeks.
The study was carried out in cohorts:
Cohort 1: 1 mg IB-MECA or placebo.
Cohort 2: 2 mg IB-MECA or placebo.
Cohort 3: 4 mg IB-MECA or placebo.
Within each cohort, patients were randomly assigned to either IB-MECA or placebo in a 3:1 ratio.
Disease was assessed using the Psoriasis Area and Severity Index (PASI).
Sixty two (62) patients were evaluated that belonged ton the following treatment groups (administration twice a day): […]

## CNC(=O)[C@H]1O[C@@H](n2cnc3c(NCc4cccc(I)c4)ncnc32)[C@H](O)[C@@H]1O [IB-MECA, 1-deoxy-1-[N^6-(3-iodobenzyl)-adenin-9-yl]-N-methyl-β-D-ribofuronamide]
2 mg IB-MECA orally twice daily (total 4 mg/day) versus placebo, patients with moderate-to-severe chronic plaque psoriasis, FIG. 1
  change in the Psoriasis Area and Severity Index (PASI) score from baseline over the study period: continuous improvement in the patients' condition throughout the course of the study; also recorded: marked effect
2 mg twice daily (total 4 mg/day) compared with 1 mg and 4 mg twice daily (2 mg/day and 8 mg/day), oral, FIG. 2
  difference between three doses of IB-MECA in the change in the PASI score from baseline over the study period: considerably greater response over the two other tested dose groups; also recorded: significantly more effective in treatment of the psoriatic plaques than treatment of psoriasis at daily doses of 2 mg or 8 mg; also recorded: superior to a lower daily dose of 2 mg or a higher dose of 8 mg
